Measured values: patent US20030003508A1 (priority 1999, published 2003)

Test system: R. pulicis
Format: cell-based, Rickettsia pulicis

CO[C@H]1/C=C/O[C@@]2(C)Oc3c(C)c(O)c4c(O)c(c(/C=N/N5CCN(C)CC5)c(O)c4c3C2=O)NC(=O)/C(C)=C\C=C\[C@H](C)[C@H](O)[C@@H](C)[C@@H](O)[C@@H](C)[C@H](OC(C)=O)[C@@H]1C [Rifampin]
inhibitory at single concentration tested: inhibitory
